Molecules are shown by their SMILES.

In the experiment the target is T1, human PAD4 (Homo sapiens, UniProt Q9UM07).
T1 construct: human PAD4 (NM_012387), A2P663, was PCR amplified; His-SUMO (N, cleaved yes); made in house; host or cells: E. coli BL21(DE3)
Nature of the experiment: In vitro PAD4 BAEE biochemical assay. The note with it: human PAD4, BAEE substrate; 5 nM PAD4, 2 mM calcium chloride, 3 mM BAEE; geometric mean of multiple experiments. The gist of the method:
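Ammonia generated from BAEE serves as the readout, measured by o-phthalaldehyde after EDTA termination. Final conditions: 5 nM human PAD4 (SUMO tag cleaved), 2 mM CaCl2, 3 mM BAEE, pH 7.6 MOPS buffer, 25 °C for 2 h following a 30-min compound preincubation.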

T1 sequence (Q9UM07 2-663): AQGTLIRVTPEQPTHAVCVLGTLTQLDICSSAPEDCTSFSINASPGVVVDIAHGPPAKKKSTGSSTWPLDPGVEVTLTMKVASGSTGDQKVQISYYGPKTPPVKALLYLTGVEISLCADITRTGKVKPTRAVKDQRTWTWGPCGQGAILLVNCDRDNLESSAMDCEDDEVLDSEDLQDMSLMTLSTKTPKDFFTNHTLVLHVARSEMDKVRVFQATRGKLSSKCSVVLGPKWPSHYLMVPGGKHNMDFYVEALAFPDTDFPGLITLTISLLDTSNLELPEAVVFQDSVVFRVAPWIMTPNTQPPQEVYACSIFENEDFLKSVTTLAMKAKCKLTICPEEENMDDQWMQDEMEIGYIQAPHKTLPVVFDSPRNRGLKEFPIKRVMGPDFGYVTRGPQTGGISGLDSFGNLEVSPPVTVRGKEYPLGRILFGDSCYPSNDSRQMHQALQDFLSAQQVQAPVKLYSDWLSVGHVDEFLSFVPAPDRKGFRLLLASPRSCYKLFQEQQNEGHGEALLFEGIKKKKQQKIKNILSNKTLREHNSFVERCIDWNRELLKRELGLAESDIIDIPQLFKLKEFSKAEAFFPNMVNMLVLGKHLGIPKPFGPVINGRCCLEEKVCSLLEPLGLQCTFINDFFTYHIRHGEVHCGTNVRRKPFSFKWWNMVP

By IC50 is commonly meant the concentration needed to halve the response being measured. With `[2H]C([2H])([2H])OC(=O)N[C@H](C)c1ccc2cc(-c3nc4cc(C(=O)N5[C@H]6CC[C@@H]5[C@H](N)C6)cc(OC)n4c3C)n(CC3CC3)c2n1` [Example 164, trideuteriomethyl~{N}-[(1~{R})-1-[2-[7-[(1~{R},2~{R},4~{S})-2-amino-7-azabicyclo[2.2.1]heptane-7-carbonyl]-5-methoxy-3-methylimidazo[1,2-a]pyridin-2-yl]-1-(cyclopropylmethyl)pyrrolo [2,3-b]pyridin-6-yl]ethyl] carbamate], the IC50 was determined as 79 nM.

Regarding `COc1cc(C(=O)N2[C@H]3CC[C@@H]2[C@H](N)C3)cc2nc(-c3cc4ccc([C@@H](C)NC(=O)C5(C#N)CC5)nc4n3CC3CC3)c(C)n12` [Example 165, ~{N}-[(1~{R})-1-[2-[7-[(1~{R},2~{R},4~{S})-2-amino-7-azabicyclo[2.2.1]heptane-7-carbonyl]-5-methoxy-3-methylimidazo [1,2-a]pyridin-2-yl]-1-(cyclopropylmethyl)pyrrolo [2,3-b]pyridin-6-yl]ethyl]-1-cyanocyclopropane-1-carboxamide], the half-inhibitory concentration (IC50) is 60.5 nM.

Turning to `COc1cc(C(=O)N2[C@H]3CC[C@@H]2[C@H](N)C3)cc2nc(-c3cc4ccc([C@@H](C)NC(=O)C5(C)COC5)nc4n3CC3CC3)c(C)n12` [Example 166, ~{N}-[(1~{R})-1-[2-[7-[(1~{R},2~{R},4~{S})-2-amino-7-azabicyclo[2.2.1]heptane-7-carbonyl]-5-methoxy-3-methylimidazo [1,2-a]pyridin-2-yl]-1-(cyclopropylmethyl)pyrrolo [2,3-b]pyridin-6-yl]ethyl]-3-methyloxetane-3-carboxamide], the half-inhibitory concentration (IC50) amounted to 56 nM.

`COc1cc(C(=O)N2C[C@H]3C[C@H](C)[C@@H]2[C@@H]3N)cc2nc(-c3cc4ccc([C@@H](C)NC(=O)C(C)(C)C)nc4n3CC3CC3)c(C)n12` [Example 167, N-((R)-1-(2-(7-((1R,4R,6S,7R)-7-amino-6-methyl-2-azabicyclo[2.2.1]heptane-2-carbonyl)-5-methoxy-3-methylimidazo [1,2-a]pyridin-2-yl)-1-(cyclopropylmethyl)-1H-pyrrolo [2,3-b]pyridin-6-yl)ethyl) pivalamide]: the concentration for half-maximal inhibition (IC50) turned out to be 2700 nM.

On to `COc1cc(C(=O)N2[C@H]3CC[C@@H]2[C@H](N)C3)cc2nc(-c3cc4ccc(C(C)(C)NC(=O)C(C)(C)C)nc4n3CC3CC3)c(C)n12` [Example 168, ~{N}-[2-[2-[7-[(1~{R},2~{R},4~{S})-2-amino-7-azabicyclo[2.2.1]heptane-7-carbonyl]-5-methoxy-3-methylimidazo [1,2-a]pyridin-2-yl]-1-(cyclopropylmethyl)pyrrolo [2,3-b]pyridin-6-yl]propan-2-yl]-2,2-dimethylpropanamide], for which the IC50 came out at 171 nM.

Consider `COc1cc(C(=O)N2[C@H]3CC[C@@H]2[C@H](N)C3)cc2nc(-c3cc4ccc([C@@H](C)NC(=O)C56CC(F)(C5)C6)nc4n3CC3CC3)c(C)n12` [Example 169, N—((R)-1-(2-(7-((1R,2R,4S)-2-amino-7-azabicyclo[2.2.1]heptane-7-carbonyl)-5-methoxy-3-methylimidazo[1,2-a]pyridin-2-yl)-1-(cyclopropylmethyl)-1H-pyrrolo[2,3-b]pyridin-6-yl)ethyl)-3-fluorobicyclo[1.1.1]pentane-1-carboxamide], for which the IC50 came to 68.5 nM.

For the compound `COc1cc(C(=O)N2[C@@H]3CC[C@@H](N)[C@H]2CC3)cc2nc(-c3cc4ccc([C@@H](C)NC(=O)C(C)(C)C)nc4n3CC3CC3)c(C)n12` [Example 170, ~{N}-[(1~{R})-1-[2-[7-[(1~{R},2~{R},5~{R})-2-amino-8-azabicyclo[3.2.1]octane-8-carbonyl]-5-methoxy-3-methylimidazo [1,2-a]pyridin-2-yl]-1-(cyclopropylmethyl)pyrrolo [2,3-b]pyridin-6-yl]ethyl]-2,2-dimethylpropanamide], the IC50 amounted to 161 nM.

For the compound `COc1cc(C(=O)N2[C@H]3CC[C@@H]2[C@H](N)C3)cc2nc(-c3cc4ccc([C@@H](C)NC(=O)C(C)(C)C(F)(F)F)nc4n3CC3CC3)c(C)n12` [Example 171, ~{N}-[(1~{R})-1-[2-[7-[(1~{R},2~{R},4~{S})-2-amino-7-azabicyclo[2.2.1]heptane-7-carbonyl]-5-methoxy-3-methylimidazo [1,2-a]pyridin-2-yl]-1-(cyclopropylmethyl)pyrrolo [2,3-b]pyridin-6-yl]ethyl]-3,3,3-trifluoro-2,2-dimethylpropanamide], the IC50 came to 179 nM.

Regarding `COc1cc(C(=O)N2[C@H]3CC[C@@H]2[C@H](N)C3)cc2nc(-c3cc4ccc([C@@H](C)NC(=O)C(C)(C)OC)nc4n3CC3CC3)c(C)n12` [Example 172, ~{N}-[(1~{R})-1-[2-[7-[(1~{R},2~{R},4~{S})-2-amino-7-azabicyclo[2.2.1]heptane-7-carbonyl]-5-methoxy-3-methylimidazo [1,2-a]pyridin-2-yl]-1-(cyclopropylmethyl)pyrrolo [2,3-b]pyridin-6-yl]ethyl]-2-methoxy-2-methylpropanamide], the half-maximal inhibitory concentration (IC50) turned out to be 98.3 nM.

For the compound `COc1cc(C(=O)N2C[C@H]3C[C@H](O)[C@@H]2[C@@H]3N)cc2nc(-c3cc4ccc([C@@H](C)NC(=O)C(C)(C)C)nc4n3CC3CC3)c(C)n12` [Example 173, N-((R)-1-(2-(7-((1S,4R,6S,7R)-7-amino-6-hydroxy-2-azabicyclo [2.2.1]heptane-2-carbonyl)-5-methoxy-3-methylimidazo [1,2-a]pyridin-2-yl)-1-(cyclopropylmethyl)-1H-pyrrolo[2,3-b]pyridin-6-yl)ethyl)pivalamide], the concentration for half-maximal inhibition (IC50) is 497 nM.

With `COc1cc(C(=O)N2C[C@H]3CC[C@@H]2[C@@H]3N)cc2nc(-c3cc4ccc([C@@H](C)NC(=O)C(C)(C)C)nc4n3CC3CC3)c(C)n12` [Example 174, N-((R)-1-(2-(7-((1R,4R,7R)-7-amino-2-azabicyclo[2.2.1]heptane-2-carbonyl)-5-methoxy-3-methylimidazo[1,2-a]pyridin-2-yl)-1-(cyclopropylmethyl)-1H-pyrrolo [2,3-b]pyridin-6-yl)ethyl) pivalamide], the IC50 came out at 297 nM.

Turning to `COc1cc(C(=O)N2[C@H]3CC[C@@H]2[C@H](N)C3)cc2nc(-c3cc4ccc([C@@H](C)NC(=O)c5ccccn5)nc4n3CC3CC3)c(C)n12` [Example 175, ~{N}-[(1~{R})-1-[2-[7-[(1~{R},2~{R},4~{S})-2-amino-7-azabicyclo[2.2.1]heptane-7-carbonyl]-5-methoxy-3-methylimidazo [1,2-a]pyridin-2-yl]-1-(cyclopropylmethyl)pyrrolo [2,3-b]pyridin-6-yl]ethyl]pyridine-2-carboxamide], the IC50 was found to be 181 nM.

As for `COc1cc(C(=O)N2[C@H]3CC[C@@H]2[C@H](N)C3)cc2nc(-c3cc4ccc([C@@H](C)NC(=O)c5ccccc5)nc4n3CC3CC3)c(C)n12` [Example 176], the half-maximal inhibitory concentration (IC50) was 88.7 nM.

For the compound `COc1cc(C(=O)N2[C@H]3CC[C@@H]2[C@H](N)C3)cc2nc(-c3cc4ccc([C@@H](C)NC(=O)C(C)(C)C)nc4n3CC3CC3)c(C)n12` [Example 177, N—((R)-1-(2-(7-((1R,2R,4S)-2-amino-7-azabicyclo[2.2.1]heptane-7-carbonyl)-5-methoxy-3-methylimidazo[1,2-a]pyridin-2-yl)-1-(cyclopropylmethyl)-1H-pyrrolo[2,3-b]pyridin-6-yl)ethyl)pivalamide], the IC50 was 76.3 nM.

On to `COc1cc(C(=O)N2[C@H]3CC[C@@H]2[C@H](N)C3)cc2nc(-c3cc4ccc([C@@H](C)NC(C)=O)nc4n3CC3CC3)c(C3CC3)n12` [Example 178, ~{N}-[(1~{R})-1-[2-[7-[(1~{R},2~{R},4~{S})-2-amino-7-azabicyclo[2.2.1]heptane-7-carbonyl]-3-cyclopropyl-5-methoxyimidazo [1,2-a]pyridin-2-yl]-1-(cyclopropylmethyl)pyrrolo [2,3-b]pyridin-6-yl]ethyl] acetamide], for which the half-maximal inhibitory concentration (IC50) amounted to 89.4 nM.

For `COc1cc(C(=O)N2[C@H]3CC[C@@H]2[C@H](N)C3)cc2nc(-c3cc4ccc([C@@H](C)NC(C)=O)nc4n3CC3CC3)c(C)n12` [Example 179, ~{N}-[(1~{R})-1-[2-[7-[(1~{R},2~{R},4~{S})-2-amino-7-azabicyclo[2.2.1]heptane-7-carbonyl]-5-methoxy-3-methylimidazo [1,2-a]pyridin-2-yl]-1-(cyclopropylmethyl)pyrrolo [2,3-b]pyridin-6-yl]ethyl] acetamide], the IC50 was 85 nM.

For `COc1cc(C(=O)N2CC[C@H]3CCCN[C@H]3C2)cc2nc(-c3cc4ccc([C@@H](C)NC(=O)C56CC(F)(C5)C6)nc4n3CC3CC3)c(C)n12` [Example 180, ~{N}-[(1~{R})-1-[2-[7-[(4~{a}~{R},8~{a}~{R})-2,3,4,4~{a},5,6,8,8~{a}-octahydro-1~{H}-1,7-naphthyridine-7-carbonyl]-5-methoxy-3-methylimidazo [1,2-a]pyridin-2-yl]-1-(cyclopropylmethyl)pyrrolo [2,3-b]pyridin-6-yl]ethyl]-3-fluorobicyclo[1.1.1]pentane-1-carboxamide], the IC50 amounted to 494 nM.

As to `COc1cc(C(=O)N2CC[C@@H]3CCCN[C@@H]3C2)cc2nc(-c3cc4ccc([C@@H](C)NC(=O)C56CC(F)(C5)C6)nc4n3CC3CC3)c(C)n12` [Example 181, ~{N}-[(1~{R})-1-[2-[7-[(4~{a}~{S},8~{a}~{S})-2,3,4,4~{a},5,6,8,8~{a}-octahydro-1~{H}-1,7-naphthyridine-7-carbonyl]-5-methoxy-3-methylimidazo [1,2-a]pyridin-2-yl]-1-(cyclopropylmethyl)pyrrolo [2,3-b]pyridin-6-yl]ethyl]-3-fluorobicyclo[1.1.1]pentane-1-carboxamide], the half-maximal inhibitory concentration (IC50) turned out to be 10500 nM.

On to `COc1cc(C(=O)N2[C@@H]3CC[C@H]2[C@@H](N)[C@@H](OC)C3)cc2nc(-c3cc4ccc([C@@H](C)NC(=O)C56CC(F)(C5)C6)nc4n3CC3CC3)c(C)n12` [Example 182], for which the IC50 was 1360 nM.

Source of the values: patent US12240862B2, “Inhibitors of peptidylarginine deiminases” (Gilead Sciences, Inc., priority 2020, dated 2025).
